Assay results reported in paper PMC9021566, “Design, Synthesis, and Antitumor Activity Study of All-Hydrocarbon-Stapled B1-Leu Peptides” (Frontiers in Chemistry, 2022).
Where two headings read alike, the source gives them in different places.

Tests used:
[1] = On-resin ring-closing olefin metathesis (all-hydrocarbon stapling, S5/S5 i,i+4 or R8/S5 i,i+7), first-generation Grubbs catalyst (3 equiv); then Fmoc removal, TFA cleavage, RP-HPLC; conditions: the molecule shown is the open-chain precursor, 33-membered ring, 1,2-dichloroethane (dry), 25.0 °C, 4.0 h
[2] = the molecule shown is the open-chain precursor, resin

Row | Structure (SMILES) | ring closure, overall yield [1] [%] | also measured
1 | C=CCCCCCC[C@@](C)(NC(=O)[C@@H](NC(=O)OCC1c2ccccc2-c2ccccc21)C(C)C)C(=O)N[C@@H](CCCNC(=N)NS(=O)(=O)c1c(C)c(C)c2c(c1C)CC(C)(C)O2)C(=O)N[C@@H](Cc1ccccc1)C(=O)N[C@@H](CCCCNC(=O)OC(C)(C)C)C(=O)N[C@@H](CCCCNC(=O)OC(C)(C)C)C(=O)N[C@@H](Cc1ccccc1)C(=O)N[C@@H](Cc1ccccc1)C(=O)N[C@@](C)(CCCC=C)C(=O)N[C@@H](CCCCNC(=O)OC(C)(C)C)C(=O)N[C@@H](CC(C)C)C(=O)N[C@@H](CCCCNC(=O)OC(C)(C)C)C(=O)N[C@@H](CCCCNC(=O)OC(C)(C)C)C(=O)N[C@@H](CC(C)C)C(=O)N[C@H](C(N)=O)C(C)C | 62 | 
2 | C=CCCCCCC[C@@](C)(NC(=O)[C@H](CCCCNC(=O)OC(C)(C)C)NC(=O)[C@H](Cc1ccccc1)NC(=O)[C@H](CCCNC(=N)NS(=O)(=O)c1c(C)c(C)c2c(c1C)CC(C)(C)O2)NC(=O)[C@H](CCCCNC(=O)OC(C)(C)C)NC(=O)[C@@H](NC(=O)OCC1c2ccccc2-c2ccccc21)C(C)C)C(=O)N[C@@H](Cc1ccccc1)C(=O)N[C@@H](Cc1ccccc1)C(=O)N[C@@H](CCCNC(=N)NS(=O)(=O)c1c(C)c(C)c2c(c1C)CC(C)(C)O2)C(=O)N[C@@H](CCCCNC(=O)OC(C)(C)C)C(=O)N[C@@H](CC(C)C)C(=O)N[C@@H](CCCCNC(=O)OC(C)(C)C)C(=O)N[C@@](C)(CCCC=C)C(=O)N[C@@H](CC(C)C)C(=O)N[C@H](C(N)=O)C(C)C | 62 | 
3 | C=CCCCCCC[C@@](C)(NC(=O)[C@H](Cc1ccccc1)NC(=O)[C@H](CCCNC(=N)NS(=O)(=O)c1c(C)c(C)c2c(c1C)CC(C)(C)O2)NC(=O)[C@H](CCCCNC(=O)OC(C)(C)C)NC(=O)[C@@H](NC(=O)OCC1c2ccccc2-c2ccccc21)C(C)C)C(=O)N[C@@H](CCCCNC(=O)OC(C)(C)C)C(=O)N[C@@H](Cc1ccccc1)C(=O)N[C@@H](Cc1ccccc1)C(=O)N[C@@H](CCCNC(=N)NS(=O)(=O)c1c(C)c(C)c2c(c1C)CC(C)(C)O2)C(=O)N[C@@H](CCCCNC(=O)OC(C)(C)C)C(=O)N[C@@H](CC(C)C)C(=O)N[C@@](C)(CCCC=C)C(=O)N[C@@H](CCCCNC(=O)OC(C)(C)C)C(=O)N[C@@H](CC(C)C)C(=O)N[C@H](C(N)=O)C(C)C |  | ring closure, overall yield ([2]; 33-membered ring): 65%
4 | C=CCCC[C@](C)(NC(=O)[C@H](CCCCNC(=O)OC(C)(C)C)NC(=O)[C@H](Cc1ccccc1)NC(=O)[C@H](CCCNC(=N)NS(=O)(=O)c1c(C)c(C)c2c(c1C)CC(C)(C)O2)NC(=O)[C@](C)(CCCC=C)NC(=O)[C@@H](NC(=O)OCC1c2ccccc2-c2ccccc21)C(C)C)C(=O)N[C@@H](Cc1ccccc1)C(=O)N[C@@H](Cc1ccccc1)C(=O)N[C@@H](CCCNC(=N)NS(=O)(=O)c1c(C)c(C)c2c(c1C)CC(C)(C)O2)C(=O)N[C@@H](CCCCNC(=O)OC(C)(C)C)C(=O)N[C@@H](CC(C)C)C(=O)N[C@@H](CCCCNC(=O)OC(C)(C)C)C(=O)N[C@@H](CCCCNC(=O)OC(C)(C)C)C(=O)N[C@@H](CC(C)C)C(=O)N[C@H](C(N)=O)C(C)C |  | ring closure, overall yield ([2]; 21-membered ring): 65%
